According to ChEMBL document CHEMBL6078630, “Design, synthesis, and bioactivity investigation of novel cyclic lipopeptide antibiotics targeting top-priority multidrug-resistant gram-negative bacteria” (Eur J Med Chem, 2024):
≈ marks a conversion by molar mass, not a printed value. Bridge positions count the residues as written; N and C are the ends. Square brackets hold non-standard residues; d marks the D form. Peptide text beside a SMILES is read from it. * marks the point of attachment. Heptanoyl(6-Me) = CC(C)CCCCC(=O)*; X1 = CC[C@H](C)CCCCC(=O)*; dDab = NCC[C@@H](N)C(=O)O; Orn = NCCC[C@H](N)C(=O)O; Dab = NCC[C@H](N)C(=O)O; Dap = NC[C@H](N)C(=O)O

What was measured:
Escherichia coli [1] = test: Antibacterial activity against Escherichia coli ATCC BAA-2523 assessed as inhibition of bacterial growth incubated for 16 to 20 hrs by CLSI protocol based broth microdilution method; assay type: functional; conditions: time 16-20 hrs
Escherichia coli [2] = test: Antibacterial activity against carbapenem-resistant Escherichia coli ATCC BAA-2340 assessed as inhibition of bacterial growth incubated for 16 to 20 hrs by CLSI protocol based broth microdilution method; assay type: functional; conditions: time 16-20 hrs
Klebsiella pneumoniae [3] = test: Antibacterial activity against carbapenem-resistant Klebsiella pneumoniae clinical isolate KPN+19-15 assessed as inhibition of bacterial growth incubated for 16 to 20 hrs by CLSI protocol based broth microdilution method; assay type: functional; conditions: time 16-20 hrs
Klebsiella pneumoniae [4] = test: Antibacterial activity against carbapenem-resistant Klebsiella pneumoniae ATCC BAA-1705 assessed as inhibition of bacterial growth incubated for 16 to 20 hrs by CLSI protocol based broth microdilution method; assay type: functional; conditions: time 16-20 hrs
Pseudomonas aeruginosa [5] = test: Antibacterial activity against carbapenem-resistant Pseudomonas aeruginosa clinical isolate 19-3 assessed as inhibition of bacterial growth incubated for 16 to 20 hrs by CLSI protocol based broth microdilution method; assay type: functional; conditions: time 16-20 hrs
Pseudomonas aeruginosa [6] = test: Antibacterial activity against Pseudomonas aeruginosa ATCC 27853 assessed as inhibition of bacterial growth incubated for 16 to 20 hrs by CLSI protocol based broth microdilution method; assay type: functional; conditions: time 16-20 hrs
Acinetobacter baumannii [7] = test: Antibacterial activity against carbapenem-sensitive Acinetobacter baumannii clinical isolate 19-1 assessed as inhibition of bacterial growth incubated for 16 to 20 hrs by CLSI protocol based broth microdilution method; assay type: functional; conditions: time 16-20 hrs
Acinetobacter baumannii [8] = test: Antibacterial activity against Acinetobacter baumannii NCTC 13304 (OXA-27) assessed as inhibition of bacterial growth incubated for 16 to 20 hrs by CLSI protocol based broth microdilution method; assay type: functional; conditions: time 16-20 hrs
[9] = Renal cytotoxicity against HK-2 cells incubated for 72 hrs by CCK8 assay; assay type: toxicity, cell-based; conditions: human

Structure (SMILES) | MIC (Escherichia coli [1]) | MIC (Escherichia coli [2]) | MIC (Klebsiella pneumoniae [3]) | MIC (Klebsiella pneumoniae [4]) | MIC (Pseudomonas aeruginosa [5]) | MIC (Pseudomonas aeruginosa [6]) | MIC (Acinetobacter baumannii [7]) | MIC (Acinetobacter baumannii [8]) | IC50 at 72 h [9]
CC(C)CCCCC(=O)N[C@@H](CCN)C(=O)N[C@H](C(=O)N[C@H](CO)C(=O)N[C@H]1CCNC(=O)[C@H]([C@@H](C)O)NC(=O)[C@H](CCN)NC(=O)[C@H](CCCN)NC(=O)[C@H]([C@@H](C)O)NC(=O)[C@@H](Cc2ccccc2)NC(=O)[C@H](CCN)NC1=O)[C@@H](C)O ({Heptanoyl(6-Me)}-[Dab]T[dS][Dab][Dab][dF]T[Orn][Dab]T; lactam 4-C) | 0.125 µg/mL (≈ 0.106 µM) | 0.06 µg/mL (≈ 0.0509 µM) | 0.125 µg/mL (≈ 0.106 µM) | 0.25 µg/mL (≈ 0.212 µM) | 8 µg/mL (≈ 6.79 µM) | 4 µg/mL (≈ 3.39 µM) | 0.125 µg/mL (≈ 0.106 µM) | 0.125 µg/mL (≈ 0.106 µM) | > 500 µg/mL
CC(C)CCCCC(=O)N[C@@H](CCN)C(=O)N[C@H](C(=O)N[C@@H](CO)C(=O)N[C@H]1CCNC(=O)[C@H]([C@@H](C)O)NC(=O)[C@H](CCN)NC(=O)[C@H](CCN)NC(=O)[C@H]([C@@H](C)O)NC(=O)[C@@H](CC(C)C)NC(=O)[C@H](CCN)NC1=O)[C@@H](C)O | 2 µg/mL (≈ 1.77 µM) | 2 µg/mL (≈ 1.77 µM) | 4 µg/mL (≈ 3.54 µM) | 4 µg/mL (≈ 3.54 µM) | 64 µg/mL (≈ 56.6 µM) | > 64 µg/mL | 8 µg/mL (≈ 7.08 µM) | 8 µg/mL (≈ 7.08 µM) | > 500 µg/mL
CC(C)CCCCC(=O)N[C@@H](CCN)C(=O)N[C@H](C(=O)N[C@H](CO)C(=O)N[C@H]1CCNC(=O)[C@H]([C@@H](C)O)NC(=O)[C@H](CN)NC(=O)[C@H](CCN)NC(=O)[C@H]([C@@H](C)O)NC(=O)[C@@H](Cc2ccccc2)NC(=O)[C@H](CCN)NC1=O)[C@@H](C)O ({Heptanoyl(6-Me)}-[Dab]T[dS][Dab][Dab][dF]T[Dab][Dap]T; lactam 4-C) | ≤ 0.03 µg/mL | ≤ 0.03 µg/mL | ≤ 0.03 µg/mL | 0.06 µg/mL (≈ 0.0522 µM) | 8 µg/mL (≈ 6.95 µM) | 8 µg/mL (≈ 6.95 µM) | 0.06 µg/mL (≈ 0.0522 µM) | ≤ 0.03 µg/mL | > 500 µg/mL
CC(C)CCCCC(=O)N[C@@H](CCCN)C(=O)N[C@H](C(=O)N[C@H](CO)C(=O)N[C@H]1CCNC(=O)[C@H]([C@@H](C)O)NC(=O)[C@H](CCN)NC(=O)[C@H](CCN)NC(=O)[C@H]([C@@H](C)O)NC(=O)[C@@H](Cc2ccccc2)NC(=O)[C@H](CCN)NC1=O)[C@@H](C)O ({Heptanoyl(6-Me)}-[Orn]T[dS][Dab][Dab][dF]T[Dab][Dab]T; lactam 4-C) | 0.25 µg/mL (≈ 0.212 µM) | 0.25 µg/mL (≈ 0.212 µM) | 0.5 µg/mL (≈ 0.424 µM) | 0.5 µg/mL (≈ 0.424 µM) | 64 µg/mL (≈ 54.3 µM) | > 64 µg/mL | 4 µg/mL (≈ 3.39 µM) | 4 µg/mL (≈ 3.39 µM) | > 500 µg/mL
CC[C@H](C)CCCCC(=O)N[C@@H](CCN)C(=O)N[C@H](C(=O)N[C@H](CCN)C(=O)N[C@H]1CCNC(=O)[C@H]([C@@H](C)O)NC(=O)[C@H](CCN)NC(=O)[C@H](CCN)NC(=O)[C@H]([C@@H](C)O)NC(=O)[C@@H](Cc2ccccc2)NC(=O)[C@H](CCN)NC1=O)[C@@H](C)O (X1-[Dab]T[dDab][Dab][Dab][dF]T[Dab][Dab]T; lactam 4-C) | ≤ 0.03 µg/mL | ≤ 0.03 µg/mL | ≤ 0.03 µg/mL | ≤ 0.03 µg/mL | 1 µg/mL (≈ 0.839 µM) | 1 µg/mL (≈ 0.839 µM) | ≤ 0.03 µg/mL | ≤ 0.03 µg/mL | 371 µg/mL (≈ 311 µM)
CC(C)CCCCC(=O)N[C@@H](CCN)C(=O)N[C@H](C(=O)N[C@H](CCN)C(=O)N[C@H]1CCNC(=O)[C@H]([C@@H](C)O)NC(=O)[C@H](CCN)NC(=O)[C@H](CCN)NC(=O)[C@H]([C@@H](C)O)NC(=O)[C@@H](Cc2ccccc2)NC(=O)[C@H](CCN)NC1=O)[C@@H](C)O ({Heptanoyl(6-Me)}-[Dab]T[dDab][Dab][Dab][dF]T[Dab][Dab]T; lactam 4-C) | ≤ 0.03 µg/mL | ≤ 0.03 µg/mL | ≤ 0.03 µg/mL | 0.125 µg/mL (≈ 0.106 µM) | 0.5 µg/mL (≈ 0.425 µM) | 0.5 µg/mL (≈ 0.425 µM) | 0.06 µg/mL (≈ 0.051 µM) | ≤ 0.03 µg/mL | > 500 µg/mL
CC(C)CCCCC(=O)N[C@@H](CCN)C(=O)N[C@H](C(=O)N[C@H](CO)C(=O)N[C@H]1CCNC(=O)[C@H]([C@@H](C)O)NC(=O)[C@H](CCN)NC(=O)[C@H](CCN)NC(=O)[C@H]([C@@H](C)O)NC(=O)[C@@H](Cc2ccccc2)NC(=O)[C@H](CN)NC1=O)[C@@H](C)O ({Heptanoyl(6-Me)}-[Dab]T[dS][Dab][Dap][dF]T[Dab][Dab]T; lactam 4-C) | 0.06 µg/mL (≈ 0.0522 µM) | 0.06 µg/mL (≈ 0.0522 µM) | 0.06 µg/mL (≈ 0.0522 µM) | 0.25 µg/mL (≈ 0.217 µM) | 64 µg/mL (≈ 55.6 µM) | > 64 µg/mL | 0.25 µg/mL (≈ 0.217 µM) | 0.25 µg/mL (≈ 0.217 µM) | > 500 µg/mL
CC(C)CCCCC(=O)N[C@@H](CCN)C(=O)N[C@H](C(=O)N[C@H](CO)C(=O)N[C@H]1CCNC(=O)[C@H]([C@@H](C)O)NC(=O)[C@H](CCN)NC(=O)[C@H](CCN)NC(=O)[C@H](CC(C)C)NC(=O)[C@H](Cc2ccccc2)NC(=O)[C@H](CCN)NC1=O)[C@@H](C)O | 0.06 µg/mL (≈ 0.051 µM) | ≤ 0.03 µg/mL | ≤ 0.03 µg/mL | 0.125 µg/mL (≈ 0.106 µM) | 2 µg/mL (≈ 1.7 µM) | 1 µg/mL (≈ 0.85 µM) | ≤ 0.03 µg/mL | ≤ 0.03 µg/mL | > 500 µg/mL
CC(C)CCCCC(=O)N[C@@H](CCN)C(=O)N[C@H](C(=O)N[C@@H](CCCN)C(=O)N[C@H]1CCNC(=O)[C@H]([C@@H](C)O)NC(=O)[C@H](CCN)NC(=O)[C@H](CCN)NC(=O)[C@H]([C@@H](C)O)NC(=O)[C@@H](Cc2ccccc2)NC(=O)[C@H](CCN)NC1=O)[C@@H](C)O ({Heptanoyl(6-Me)}-[Dab]T[Orn][Dab][Dab][dF]T[Dab][Dab]T; lactam 4-C) | ≤ 0.03 µg/mL | ≤ 0.03 µg/mL | ≤ 0.03 µg/mL | ≤ 0.03 µg/mL | 0.25 µg/mL (≈ 0.21 µM) | ≤ 0.03 µg/mL | 0.125 µg/mL (≈ 0.105 µM) | 0.06 µg/mL (≈ 0.0504 µM) | > 500 µg/mL
CC(C)C[C@@H]1NC(=O)[C@H](CCN)NC(=O)[C@@H](NC(=O)[C@@H](CO)NC(=O)[C@@H](NC(=O)[C@H](CCN)NC(=O)CCCCCCC(=O)O)[C@@H](C)O)CCNC(=O)[C@H]([C@@H](C)O)NC(=O)[C@H](CCN)NC(=O)[C@H](CCN)NC(=O)[C@H]([C@@H](C)O)NC1=O | 0.125 µg/mL (≈ 0.108 µM) | 0.125 µg/mL (≈ 0.108 µM) | 0.25 µg/mL (≈ 0.215 µM) | 0.5 µg/mL (≈ 0.431 µM) | 8 µg/mL (≈ 6.89 µM) | 8 µg/mL (≈ 6.89 µM) | 0.5 µg/mL (≈ 0.431 µM) | 0.25 µg/mL (≈ 0.215 µM) | > 500 µg/mL
